Columns and labels:
Format in all cases: toxicity, cell-based
HEK-293T = test: Incucyte cell viability with HEK293T; details: human, 10 µM, compound concentration 10 uM
U2OS = test: Incucyte cell viability with U2OS; details: human, 10 µM, compound concentration 10 uM
Fibroblast = test: Incucyte cell viability with human fibroblast; details: 10 µM, compound concentration 10 uM
Also: unitless GR value; below 1 slowed growth and below 0 cell loss.

O=C(O)c1cc(-c2ccccc2)ccc1O
Growth Rate (HEK-293T; 0 h, replicate number 1): -0.37 | Growth Rate (HEK-293T; 24 h, replicate number 2): 0.94 | Growth Rate (U2OS; 0 h, replicate number 1): -0.47 | Growth Rate (U2OS; 0 h, replicate number 2): -0.88 | Growth Rate (U2OS; 6 h, replicate number 1): 0.63 | Growth Rate (U2OS; 12 h, replicate number 1): 0.69 | Growth Rate (U2OS; 18 h, replicate number 1): 0.88 | Growth Rate (U2OS; 24 h, replicate number 1): 0.87 | Growth Rate (Fibroblast; 6 h, replicate number 2): -0.01 | Growth Rate (Fibroblast; 12 h, replicate number 1): 0.95 | Growth Rate (Fibroblast; 12 h, replicate number 2): 0.44 | Growth Rate (Fibroblast; 18 h, replicate number 1): 0.96 | Growth Rate (Fibroblast; 18 h, replicate number 2): 0.67 | Growth Rate (Fibroblast; 24 h, replicate number 2): 0.79

CC(C)(C)C1CCc2c(sc(NC(=O)c3ccco3)c2C(=O)O)C1 (centres undefined)
Growth Rate (HEK-293T; 0 h, replicate number 2): 0.67 | Growth Rate (HEK-293T; 6 h, replicate number 1): -0.05 | Growth Rate (HEK-293T; 6 h, replicate number 2): 0 | Growth Rate (HEK-293T; 12 h, replicate number 1): -0.04 | Growth Rate (HEK-293T; 12 h, replicate number 2): -0.11 | Growth Rate (HEK-293T; 18 h, replicate number 1): -0.24 | Growth Rate (HEK-293T; 18 h, replicate number 2): -0.17 | Growth Rate (HEK-293T; 24 h, replicate number 1): -0.21 | Growth Rate (HEK-293T; 24 h, replicate number 2): -0.13 | Growth Rate (U2OS; 0 h, replicate number 2): -1 | Growth Rate (U2OS; 6 h, replicate number 1): -0.02 | Growth Rate (U2OS; 6 h, replicate number 2): 0.95 | Growth Rate (U2OS; 12 h, replicate number 2): 0.8 | Growth Rate (U2OS; 18 h, replicate number 2): 0.79 | Growth Rate (U2OS; 24 h, replicate number 2): 0.84 | Growth Rate (Fibroblast; 0 h, replicate number 1): -0.35 | Growth Rate (Fibroblast; 0 h, replicate number 2): -0.91 | Growth Rate (Fibroblast; 6 h, replicate number 1): 0.79 | Growth Rate (Fibroblast; 6 h, replicate number 2): -0.97 | Growth Rate (Fibroblast; 12 h, replicate number 1): -1 | Growth Rate (Fibroblast; 12 h, replicate number 2): 0.65 | Growth Rate (Fibroblast; 18 h, replicate number 1): -0.68

CC(C)c1ccc(/C=N/NC(=O)c2ccc(O)cc2)cc1
Growth Rate (HEK-293T; 0 h, replicate number 1): 0.78 | Growth Rate (HEK-293T; 6 h, replicate number 1): 0.39 | Growth Rate (HEK-293T; 6 h, replicate number 2): 0.04 | Growth Rate (HEK-293T; 12 h, replicate number 1): 0.85 | Growth Rate (HEK-293T; 12 h, replicate number 2): 0.36 | Growth Rate (HEK-293T; 18 h, replicate number 1): 0.85 | Growth Rate (HEK-293T; 18 h, replicate number 2): 0.58 | Growth Rate (HEK-293T; 24 h, replicate number 1): 0.81 | Growth Rate (HEK-293T; 24 h, replicate number 2): 0.63 | Growth Rate (U2OS; 0 h, replicate number 1): -0.47 | Growth Rate (U2OS; 0 h, replicate number 2): -0.95 | Growth Rate (U2OS; 24 h, replicate number 2): 0.98 | Growth Rate (Fibroblast; 6 h, replicate number 1): -0.99 | Growth Rate (Fibroblast; 6 h, replicate number 2): 0.53 | Growth Rate (Fibroblast; 12 h, replicate number 2): 0.42 | Growth Rate (Fibroblast; 18 h, replicate number 2): 0.57 | Growth Rate (Fibroblast; 24 h, replicate number 2): 0.46

C=CC(=O)N1CCC[C@@H](n2nc(C(=O)Nc3ccc(CC(=O)N(C)C)c(C)c3C)c3c(N)ncnc32)C1
Growth Rate (HEK-293T; 0 h, replicate number 1): -0.26 | Growth Rate (HEK-293T; 0 h, replicate number 2): -0.68 | Growth Rate (U2OS; 0 h, replicate number 2): -0.77 | Growth Rate (Fibroblast; 0 h, replicate number 1): 0.74 | Growth Rate (Fibroblast; 0 h, replicate number 2): -1 | Growth Rate (Fibroblast; 6 h, replicate number 1): -0.17 | Growth Rate (Fibroblast; 12 h, replicate number 1): -1 | Growth Rate (Fibroblast; 24 h, replicate number 1): 0.16

CN1CC[C@@]23CCCC[C@@H]2[C@@H]1Cc1ccc(O)cc13.O=C(O)C(O)C(O)C(=O)O
Growth Rate (HEK-293T; 0 h, replicate number 1): 0.54 | Growth Rate (HEK-293T; 0 h, replicate number 2): 0.37 | Growth Rate (U2OS; 0 h, replicate number 2): -0.41 | Growth Rate (Fibroblast; 0 h, replicate number 1): 0.67 | Growth Rate (Fibroblast; 6 h, replicate number 2): -0.93 | Growth Rate (Fibroblast; 12 h, replicate number 1): -0.94 | Growth Rate (Fibroblast; 12 h, replicate number 2): -0.3 | Growth Rate (Fibroblast; 18 h, replicate number 1): 0.72 | Growth Rate (Fibroblast; 18 h, replicate number 2): 0.13 | Growth Rate (Fibroblast; 24 h, replicate number 2): 0.19

C=C(C)[C@H]1CN[C@H](C(=O)O)[C@H]1CC(=O)O [KAINIC ACID]
Growth Rate (HEK-293T; 6 h, replicate number 1): 0.6 | Growth Rate (HEK-293T; 12 h, replicate number 1): 0.52 | Growth Rate (HEK-293T; 18 h, replicate number 1): 0.62 | Growth Rate (HEK-293T; 18 h, replicate number 2): 0.99 | Growth Rate (HEK-293T; 24 h, replicate number 1): 0.8 | Growth Rate (U2OS; 0 h, replicate number 2): -0.65 | Growth Rate (U2OS; 6 h, replicate number 1): 0.42 | Growth Rate (U2OS; 18 h, replicate number 2): 0.9 | Growth Rate (U2OS; 24 h, replicate number 1): 0.98 | Growth Rate (Fibroblast; 0 h, replicate number 1): -0.12 | Growth Rate (Fibroblast; 0 h, replicate number 2): 0.92 | Growth Rate (Fibroblast; 6 h, replicate number 1): 0.61 | Growth Rate (Fibroblast; 6 h, replicate number 2): 0.16 | Growth Rate (Fibroblast; 12 h, replicate number 2): 0.83 | Growth Rate (Fibroblast; 18 h, replicate number 1): 0.63 | Growth Rate (Fibroblast; 18 h, replicate number 2): 0.79 | Growth Rate (Fibroblast; 24 h, replicate number 1): 0.76 | Growth Rate (Fibroblast; 24 h, replicate number 2): 0.8

O=C(N[C@H](Cc1ccccc1)C(=O)O)c1cccc(OCc2cccnc2)c1.O=CO
Growth Rate (HEK-293T; 6 h, replicate number 1): 0.73 | Growth Rate (HEK-293T; 18 h, replicate number 1): 1 | Growth Rate (U2OS; 0 h, replicate number 1): 0.75 | Growth Rate (U2OS; 0 h, replicate number 2): 0.39 | Growth Rate (U2OS; 6 h, replicate number 1): 0.69 | Growth Rate (U2OS; 6 h, replicate number 2): 0.67 | Growth Rate (U2OS; 12 h, replicate number 1): 0.66 | Growth Rate (U2OS; 12 h, replicate number 2): 0.77 | Growth Rate (U2OS; 18 h, replicate number 2): 0.98 | Growth Rate (U2OS; 24 h, replicate number 1): 0.8 | Growth Rate (U2OS; 24 h, replicate number 2): 0.86 | Growth Rate (Fibroblast; 6 h, replicate number 1): 0.68 | Growth Rate (Fibroblast; 12 h, replicate number 1): 0.47 | Growth Rate (Fibroblast; 12 h, replicate number 2): 0.7 | Growth Rate (Fibroblast; 18 h, replicate number 1): 0.93 | Growth Rate (Fibroblast; 18 h, replicate number 2): 0.81 | Growth Rate (Fibroblast; 24 h, replicate number 1): 0.88

CCN1CCN(Cc2ccc(Nc3ncc(F)c(-c4cc(F)c5nc(C)n(C(C)C)c5c4)n3)nc2)CC1 [ABEMACICLIB]
Growth Rate (HEK-293T; 0 h, replicate number 1): -1 | Growth Rate (HEK-293T; 0 h, replicate number 2): -0.03 | Growth Rate (HEK-293T; 6 h, replicate number 1): 0.74 | Growth Rate (HEK-293T; 6 h, replicate number 2): 0.78 | Growth Rate (HEK-293T; 12 h, replicate number 1): 0.31 | Growth Rate (HEK-293T; 12 h, replicate number 2): 0.37 | Growth Rate (HEK-293T; 18 h, replicate number 1): 0.35 | Growth Rate (HEK-293T; 18 h, replicate number 2): 0.44 | Growth Rate (HEK-293T; 24 h, replicate number 1): 0.54 | Growth Rate (HEK-293T; 24 h, replicate number 2): 0.44 | Growth Rate (U2OS; 0 h, replicate number 1): -0.95 | Growth Rate (U2OS; 12 h, replicate number 1): 0.83 | Growth Rate (U2OS; 12 h, replicate number 2): 0.9 | Growth Rate (U2OS; 18 h, replicate number 1): 0.62 | Growth Rate (U2OS; 18 h, replicate number 2): 0.56 | Growth Rate (U2OS; 24 h, replicate number 1): 0.63 | Growth Rate (U2OS; 24 h, replicate number 2): 0.4 | Growth Rate (Fibroblast; 0 h, replicate number 1): -1

CCCCCN1C(=O)C2(COc3cc4c(cc32)OCO4)c2ccccc21 (centres undefined)
Growth Rate (HEK-293T; 0 h, replicate number 2): 0.62 | Growth Rate (HEK-293T; 6 h, replicate number 1): 0.51 | Growth Rate (HEK-293T; 6 h, replicate number 2): 0.92 | Growth Rate (U2OS; 0 h, replicate number 1): -0.63 | Growth Rate (U2OS; 0 h, replicate number 2): -1 | Growth Rate (U2OS; 6 h, replicate number 2): 0.76 | Growth Rate (U2OS; 12 h, replicate number 2): 0.8 | Growth Rate (U2OS; 18 h, replicate number 2): 0.98 | Growth Rate (U2OS; 24 h, replicate number 2): 0.88 | Growth Rate (Fibroblast; 6 h, replicate number 2): -0.97 | Growth Rate (Fibroblast; 12 h, replicate number 2): 0.76 | Growth Rate (Fibroblast; 18 h, replicate number 1): -0.52 | Growth Rate (Fibroblast; 18 h, replicate number 2): 0.91 | Growth Rate (Fibroblast; 24 h, replicate number 1): 0.82 | Growth Rate (Fibroblast; 24 h, replicate number 2): 0.74

CN1CCC[C@H]1c1cccnc1 [NICOTINE]
Growth Rate (HEK-293T; 0 h, replicate number 1): 0.69 | Growth Rate (HEK-293T; 6 h, replicate number 1): 0.4 | Growth Rate (HEK-293T; 6 h, replicate number 2): 0.38 | Growth Rate (HEK-293T; 12 h, replicate number 1): 0.64 | Growth Rate (HEK-293T; 12 h, replicate number 2): 0.75 | Growth Rate (HEK-293T; 18 h, replicate number 1): 0.99 | Growth Rate (HEK-293T; 18 h, replicate number 2): 0.76 | Growth Rate (HEK-293T; 24 h, replicate number 1): 0.93 | Growth Rate (HEK-293T; 24 h, replicate number 2): 0.85 | Growth Rate (U2OS; 0 h, replicate number 1): -0.33 | Growth Rate (U2OS; 0 h, replicate number 2): -1 | Growth Rate (U2OS; 6 h, replicate number 1): 0.16 | Growth Rate (U2OS; 6 h, replicate number 2): 0.24 | Growth Rate (U2OS; 12 h, replicate number 2): 0.66 | Growth Rate (U2OS; 18 h, replicate number 2): 0.77 | Growth Rate (U2OS; 24 h, replicate number 2): 0.86 | Growth Rate (Fibroblast; 0 h, replicate number 2): -0.9 | Growth Rate (Fibroblast; 6 h, replicate number 2): -0.93

CS(=O)(=O)c1cc(C2(NC(=O)c3cncc4c3cnn4-c3ccc(F)cc3)CC2)ccn1 [BI 639667]
Growth Rate (HEK-293T; 0 h, replicate number 2): -0.17 | Growth Rate (HEK-293T; 6 h, replicate number 1): 0.52 | Growth Rate (HEK-293T; 12 h, replicate number 1): 0.77 | Growth Rate (HEK-293T; 18 h, replicate number 1): 0.9 | Growth Rate (HEK-293T; 24 h, replicate number 1): 1 | Growth Rate (U2OS; 6 h, replicate number 1): 0.64 | Growth Rate (U2OS; 12 h, replicate number 2): 0.76 | Growth Rate (Fibroblast; 0 h, replicate number 2): -0.75 | Growth Rate (Fibroblast; 12 h, replicate number 2): 0.97

O=C1C[C@@H]2OCC=C3CN4CC[C@]56c7ccccc7N1[C@H]5[C@H]2[C@H]3C[C@H]46 [STRYCHNINE]
Growth Rate (HEK-293T; 0 h, replicate number 1): 0.93 | Growth Rate (HEK-293T; 0 h, replicate number 2): 0.94 | Growth Rate (HEK-293T; 6 h, replicate number 2): 0.44 | Growth Rate (HEK-293T; 12 h, replicate number 2): 0.86 | Growth Rate (U2OS; 6 h, replicate number 2): 0.65 | Growth Rate (U2OS; 12 h, replicate number 1): 0.95 | Growth Rate (U2OS; 12 h, replicate number 2): 0.85 | Growth Rate (U2OS; 18 h, replicate number 1): 0.88 | Growth Rate (U2OS; 18 h, replicate number 2): 0.77 | Growth Rate (U2OS; 24 h, replicate number 1): 0.87 | Growth Rate (U2OS; 24 h, replicate number 2): 0.91 | Growth Rate (Fibroblast; 0 h, replicate number 2): -0.75 | Growth Rate (Fibroblast; 6 h, replicate number 1): 0.71 | Growth Rate (Fibroblast; 12 h, replicate number 1): -0.92 | Growth Rate (Fibroblast; 18 h, replicate number 1): 0.57 | Growth Rate (Fibroblast; 18 h, replicate number 2): 0.93 | Growth Rate (Fibroblast; 24 h, replicate number 1): 0.81 | Growth Rate (Fibroblast; 24 h, replicate number 2): 0.91
